Assay results taken from ChEMBL document CHEMBL3991601, “The target landscape of clinical kinase drugs” (Science, 2017).
Calls of active or inactive are those of the source.

Key:
[1] = molecular target: T1, Cytochrome c1, heme protein, mitochondrial (Homo sapiens, UniProt P08574)
T1 sequence (P08574 whole entry): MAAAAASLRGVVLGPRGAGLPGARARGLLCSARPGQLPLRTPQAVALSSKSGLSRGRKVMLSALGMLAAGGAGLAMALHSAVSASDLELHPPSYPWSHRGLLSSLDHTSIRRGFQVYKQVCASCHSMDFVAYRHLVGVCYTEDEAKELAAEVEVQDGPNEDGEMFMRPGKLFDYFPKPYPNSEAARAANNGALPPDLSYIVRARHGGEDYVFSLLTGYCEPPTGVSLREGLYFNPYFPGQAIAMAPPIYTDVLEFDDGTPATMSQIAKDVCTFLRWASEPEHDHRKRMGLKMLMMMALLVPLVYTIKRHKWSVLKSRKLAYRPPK

[2] = molecular target: DnaJ homolog subfamily A member 1 (Homo sapiens, UniProt P31689)
DnaJ homolog subfamily A member 1, sequence (P31689 whole entry): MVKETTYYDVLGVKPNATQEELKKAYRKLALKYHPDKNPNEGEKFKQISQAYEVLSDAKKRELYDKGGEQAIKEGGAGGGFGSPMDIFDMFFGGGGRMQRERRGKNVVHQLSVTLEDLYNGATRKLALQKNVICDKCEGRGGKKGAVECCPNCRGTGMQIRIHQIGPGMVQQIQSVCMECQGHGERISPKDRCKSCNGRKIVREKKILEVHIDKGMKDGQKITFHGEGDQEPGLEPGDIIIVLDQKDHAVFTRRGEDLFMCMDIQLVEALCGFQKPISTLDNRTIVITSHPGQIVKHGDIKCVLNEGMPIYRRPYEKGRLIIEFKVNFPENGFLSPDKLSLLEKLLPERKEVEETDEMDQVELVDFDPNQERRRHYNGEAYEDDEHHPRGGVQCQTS

[3] = molecular target: NADH dehydrogenase [ubiquinone] 1 alpha subcomplex subunit 13 (Homo sapiens, UniProt Q9P0J0)
NADH dehydrogenase [ubiquinone] 1 alpha subcomplex subunit 13, sequence (Q9P0J0 whole entry, one chain of several): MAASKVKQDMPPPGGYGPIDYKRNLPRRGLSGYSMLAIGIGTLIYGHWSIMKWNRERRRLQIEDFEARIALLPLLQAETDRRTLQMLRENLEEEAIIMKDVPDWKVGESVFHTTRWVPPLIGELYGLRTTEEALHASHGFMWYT

[4] = molecular target: T2, Serine/threonine-protein kinase Nek1 (Homo sapiens, UniProt Q96PY6)
T2 sequence (Q96PY6 whole entry): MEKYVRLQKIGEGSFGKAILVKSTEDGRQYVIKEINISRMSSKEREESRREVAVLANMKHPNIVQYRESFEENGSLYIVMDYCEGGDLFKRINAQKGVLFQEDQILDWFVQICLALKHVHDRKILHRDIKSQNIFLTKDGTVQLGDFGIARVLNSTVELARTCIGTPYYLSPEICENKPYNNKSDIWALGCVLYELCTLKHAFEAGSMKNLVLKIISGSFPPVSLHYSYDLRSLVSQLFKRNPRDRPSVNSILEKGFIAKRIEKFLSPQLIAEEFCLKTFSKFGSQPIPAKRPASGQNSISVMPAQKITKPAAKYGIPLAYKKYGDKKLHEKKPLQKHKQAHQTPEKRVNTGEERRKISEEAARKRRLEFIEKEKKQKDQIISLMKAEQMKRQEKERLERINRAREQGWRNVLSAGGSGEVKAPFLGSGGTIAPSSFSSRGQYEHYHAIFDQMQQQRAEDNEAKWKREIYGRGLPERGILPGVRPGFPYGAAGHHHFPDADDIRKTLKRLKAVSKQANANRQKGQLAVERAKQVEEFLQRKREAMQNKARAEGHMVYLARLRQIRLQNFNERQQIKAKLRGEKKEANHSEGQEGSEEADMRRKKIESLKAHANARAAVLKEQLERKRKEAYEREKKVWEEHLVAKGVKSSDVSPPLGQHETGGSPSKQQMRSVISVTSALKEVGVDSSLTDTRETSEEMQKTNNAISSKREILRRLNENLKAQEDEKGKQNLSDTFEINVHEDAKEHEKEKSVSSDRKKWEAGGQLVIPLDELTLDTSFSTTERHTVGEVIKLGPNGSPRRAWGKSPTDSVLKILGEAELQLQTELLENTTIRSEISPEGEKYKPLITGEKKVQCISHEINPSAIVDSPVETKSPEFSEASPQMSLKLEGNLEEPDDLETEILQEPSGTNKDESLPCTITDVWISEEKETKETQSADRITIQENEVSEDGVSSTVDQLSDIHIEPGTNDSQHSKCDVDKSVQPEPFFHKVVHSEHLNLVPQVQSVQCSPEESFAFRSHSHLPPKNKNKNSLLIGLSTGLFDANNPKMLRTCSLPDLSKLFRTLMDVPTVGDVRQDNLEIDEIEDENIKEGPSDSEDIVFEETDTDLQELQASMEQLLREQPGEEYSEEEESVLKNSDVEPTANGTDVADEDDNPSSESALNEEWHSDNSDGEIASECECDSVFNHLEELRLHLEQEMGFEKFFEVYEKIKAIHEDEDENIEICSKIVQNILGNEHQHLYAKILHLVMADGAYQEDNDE

[5] = molecular target: T3, Glycogen phosphorylase, brain form (Homo sapiens, UniProt P11216)
T3 sequence (P11216 whole entry): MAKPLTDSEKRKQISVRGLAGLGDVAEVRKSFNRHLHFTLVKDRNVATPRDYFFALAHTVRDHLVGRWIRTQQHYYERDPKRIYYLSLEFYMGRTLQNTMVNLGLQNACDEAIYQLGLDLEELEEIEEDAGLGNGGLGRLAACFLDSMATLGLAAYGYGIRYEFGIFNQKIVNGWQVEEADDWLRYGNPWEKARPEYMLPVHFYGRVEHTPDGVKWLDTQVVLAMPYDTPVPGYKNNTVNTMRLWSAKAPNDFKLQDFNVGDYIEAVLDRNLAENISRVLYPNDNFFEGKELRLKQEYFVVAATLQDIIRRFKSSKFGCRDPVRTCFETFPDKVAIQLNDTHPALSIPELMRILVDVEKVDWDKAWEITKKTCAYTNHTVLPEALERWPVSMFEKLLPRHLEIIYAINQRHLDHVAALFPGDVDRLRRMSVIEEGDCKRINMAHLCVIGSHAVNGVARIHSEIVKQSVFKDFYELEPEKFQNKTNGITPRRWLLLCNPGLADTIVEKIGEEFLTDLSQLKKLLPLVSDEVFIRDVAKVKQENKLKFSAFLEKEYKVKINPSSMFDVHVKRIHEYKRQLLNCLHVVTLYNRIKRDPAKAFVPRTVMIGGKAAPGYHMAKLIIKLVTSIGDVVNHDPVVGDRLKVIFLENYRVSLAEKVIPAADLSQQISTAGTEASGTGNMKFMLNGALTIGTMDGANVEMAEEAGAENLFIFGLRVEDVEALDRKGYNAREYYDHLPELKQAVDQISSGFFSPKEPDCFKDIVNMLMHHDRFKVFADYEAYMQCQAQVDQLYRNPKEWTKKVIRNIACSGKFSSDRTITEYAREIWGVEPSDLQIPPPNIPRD

[6] = molecular target: Serine/threonine-protein kinase SIK3 (Homo sapiens, UniProt Q9Y2K2)
Serine/threonine-protein kinase SIK3, sequence (Q9Y2K2 whole entry): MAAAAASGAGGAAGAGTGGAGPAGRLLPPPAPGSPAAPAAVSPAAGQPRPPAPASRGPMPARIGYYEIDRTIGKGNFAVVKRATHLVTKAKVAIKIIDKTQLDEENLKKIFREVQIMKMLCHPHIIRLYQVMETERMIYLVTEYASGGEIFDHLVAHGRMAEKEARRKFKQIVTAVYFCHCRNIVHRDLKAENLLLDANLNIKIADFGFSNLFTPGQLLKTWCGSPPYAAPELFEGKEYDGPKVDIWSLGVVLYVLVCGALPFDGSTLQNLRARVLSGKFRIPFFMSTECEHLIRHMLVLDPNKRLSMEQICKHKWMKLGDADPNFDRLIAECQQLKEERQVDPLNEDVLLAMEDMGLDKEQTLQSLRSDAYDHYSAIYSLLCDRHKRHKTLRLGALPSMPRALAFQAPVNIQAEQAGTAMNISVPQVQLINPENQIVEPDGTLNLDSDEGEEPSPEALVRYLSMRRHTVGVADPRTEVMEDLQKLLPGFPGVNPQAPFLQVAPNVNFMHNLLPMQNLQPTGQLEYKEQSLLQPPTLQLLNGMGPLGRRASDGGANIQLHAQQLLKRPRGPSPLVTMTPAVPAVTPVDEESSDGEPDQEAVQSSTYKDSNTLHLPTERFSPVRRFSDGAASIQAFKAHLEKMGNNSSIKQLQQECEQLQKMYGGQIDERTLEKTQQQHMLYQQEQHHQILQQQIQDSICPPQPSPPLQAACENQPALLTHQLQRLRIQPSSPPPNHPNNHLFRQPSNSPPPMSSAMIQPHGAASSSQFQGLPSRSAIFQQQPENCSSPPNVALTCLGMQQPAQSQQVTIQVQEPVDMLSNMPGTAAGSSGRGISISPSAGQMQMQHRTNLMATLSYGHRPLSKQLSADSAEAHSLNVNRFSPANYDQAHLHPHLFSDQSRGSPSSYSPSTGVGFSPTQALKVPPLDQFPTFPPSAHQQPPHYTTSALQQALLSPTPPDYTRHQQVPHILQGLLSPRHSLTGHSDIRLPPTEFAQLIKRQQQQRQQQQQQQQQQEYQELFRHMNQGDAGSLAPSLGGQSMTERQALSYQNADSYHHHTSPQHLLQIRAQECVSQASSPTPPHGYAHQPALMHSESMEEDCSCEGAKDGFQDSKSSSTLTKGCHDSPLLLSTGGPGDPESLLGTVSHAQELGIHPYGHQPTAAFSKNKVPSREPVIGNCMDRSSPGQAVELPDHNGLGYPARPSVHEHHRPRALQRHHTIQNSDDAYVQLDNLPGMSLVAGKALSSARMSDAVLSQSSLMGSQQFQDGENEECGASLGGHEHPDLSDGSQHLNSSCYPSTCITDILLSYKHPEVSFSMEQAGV
Further: in the data inactive means no Kd found up to 30 µM.

Kd [1] | Kd [2] | Kd [3] | Kd [4] | Kd [5] | Kd [6] | Compound
> 30 µM (inactive) | > 30 µM (inactive) | > 30 µM (inactive) | > 30 µM (inactive) | > 30 µM (inactive) | > 30 µM (inactive) | Cc1cc(Nc2cc(N3CCN(C)CC3)nc(/C=C/c3ccccc3)n2)n[nH]1 [ENMD-2076]
> 30 µM (inactive) | > 30 µM (inactive) | > 30 µM (inactive) | > 30 µM (inactive) | > 30 µM (inactive) | > 30 µM (inactive) | O=C1NC(=O)/C(=C/c2ccc3nccc(-c4ccncc4)c3c2)S1 [GSK-1059615]
> 30 µM (inactive) | > 30 µM (inactive) | > 30 µM (inactive) | > 30 µM (inactive) | > 30 µM (inactive) | > 30 µM (inactive) | Cn1cc(-c2ccc3nnc(C(F)(F)c4ccc5ncccc5c4)n3n2)cn1 [JNJ-38877605]
> 30 µM (inactive) | > 30 µM (inactive) | > 30 µM (inactive) | > 30 µM (inactive) | > 30 µM (inactive) | > 30 µM (inactive) | O=C(O)[C@]1(Cc2cccc(Nc3nccs3)n2)CC[C@@H](Oc2cccc(Cl)c2F)CC1 [MK-5108]
> 30 µM (inactive) | > 30 µM (inactive) | > 30 µM (inactive) | > 30 µM (inactive) | > 30 µM (inactive) | > 30 µM (inactive) | OCCn1cc(-c2cnc3nnn(Cc4ccc5ncccc5c4)c3n2)cn1 [PF-04217903]
> 30 µM (inactive) | > 30 µM (inactive) | > 30 µM (inactive) | > 30 µM (inactive) | > 30 µM (inactive) | > 30 µM (inactive) | CNC(=O)c1ccc(C)c(-n2c(C)cc(OCc3ccc(F)cc3F)c(Br)c2=O)c1 [PH-797804]

Further lines, the molecule ahead of its results:

Compound | Kd [1] | Kd [2] | Kd [3] | Kd [4] | Kd [5] | Kd [6]
O=C(c1ccc(F)c(F)c1Nc1ccc(I)cc1F)N1CC(O)([C@@H]2CCCCN2)C1 [COBIMETINIB] | > 30 µM (inactive) | > 30 µM (inactive) | > 30 µM (inactive) | > 30 µM (inactive) | > 30 µM (inactive) | > 30 µM (inactive)
CCc1cnn2c(NCc3ccc[n+]([O-])c3)cc(N3CCCC[C@H]3CCO)nc12 [DINACICLIB] | > 30 µM (inactive) | > 30 µM (inactive) | > 30 µM (inactive) | > 30 µM (inactive) | > 30 µM (inactive) | > 30 µM (inactive)
COC(=O)N[C@@H](C)CNc1nccc(-c2cn(C(C)C)nc2-c2cc(Cl)cc(NS(C)(=O)=O)c2F)n1 [ENCORAFENIB] | > 30 µM (inactive) | > 30 µM (inactive) | > 30 µM (inactive) | > 30 µM (inactive) | > 30 µM (inactive) | > 30 µM (inactive)
CO[C@H]1C[C@@H]2CC[C@@H](C)[C@@](O)(O2)C(=O)C(=O)N2CCCC[C@H]2C(=O)O[C@H]([C@H](C)C[C@@H]2CC[C@@H](OCCO)[C@H](OC)C2)CC(=O)[C@H](C)/C=C(\C)[C@@H](O)[C@@H](OC)C(=O)[C@H](C)C[C@H](C)/C=C/C=C/C=C/1C [EVEROLIMUS] | > 30 µM (inactive) | > 30 µM (inactive) | > 30 µM (inactive) | > 30 µM (inactive) | > 30 µM (inactive) | > 30 µM (inactive)
COCCNCc1ccc(-c2cc3nccc(Oc4ccc(NC(=S)NC(=O)Cc5ccc(F)cc5)cc4F)c3s2)nc1 [GLESATINIB] | > 30 µM (inactive) | > 30 µM (inactive) | > 30 µM (inactive) | > 30 µM (inactive) | > 30 µM (inactive) | > 30 µM (inactive)
CC[C@H](Nc1ncnc2[nH]cnc12)c1nc2cccc(F)c2c(=O)n1-c1ccccc1 [IDELALISIB] | > 30 µM (inactive) | > 30 µM (inactive) | > 30 µM (inactive) | > 30 µM (inactive) | > 30 µM (inactive) | > 30 µM (inactive)
COC(=O)[C@@]1(O)C[C@H]2O[C@]1(C)n1c3ccccc3c3c4c(c5c6ccccc6n2c5c31)C(=O)NC4 [K-252A] | > 30 µM (inactive) | > 30 µM (inactive) | > 30 µM (inactive) | > 30 µM (inactive) | > 30 µM (inactive) | 4.03 µM (active)
COc1cc2nccc(Oc3ccc(NC(=O)NC4CC4)c(Cl)c3)c2cc1C(N)=O [LENVATINIB] | > 30 µM (inactive) | > 30 µM (inactive) | > 30 µM (inactive) | > 30 µM (inactive) | > 30 µM (inactive) | > 30 µM (inactive)
Cc1c(F)cc(C(=O)NC2CC2)cc1-c1ccc(C(=O)NCC(C)(C)C)cn1 [LOSMAPIMOD] | > 30 µM (inactive) | > 30 µM (inactive) | > 30 µM (inactive) | > 30 µM (inactive) | > 30 µM (inactive) | > 30 µM (inactive)
Cn1cc(-c2ccc(F)c(C(F)(F)F)c2)nc1C1CCN(c2ncnc3[nH]ncc23)CC1 [LY-2584702] | > 30 µM (inactive) | > 30 µM (inactive) | > 30 µM (inactive) | > 30 µM (inactive) | > 30 µM (inactive) | > 30 µM (inactive)
C1=C/COCc2cc(ccc2OCCN2CCCC2)Nc2nccc(n2)-c2cccc(c2)COC/1 [PACRITINIB] | > 30 µM (inactive) | > 30 µM (inactive) | > 30 µM (inactive) | > 30 µM (inactive) | > 30 µM (inactive) | > 30 µM (inactive)
Cc1ccc(-n2nc(C(C)(C)C)cc2NC(=O)NCc2cc(F)ccc2Oc2ccc3c(cnn3CCO)c2)cc1 [PEXMETINIB] | > 30 µM (inactive) | > 30 µM (inactive) | > 30 µM (inactive) | > 30 µM (inactive) | > 30 µM (inactive) | > 30 µM (inactive)
CNC(=O)c1cc(Oc2ccc(NC(=O)Nc3ccc(Cl)c(C(F)(F)F)c3)c(F)c2)ccn1 [REGORAFENIB] | > 30 µM (inactive) | > 30 µM (inactive) | > 30 µM (inactive) | > 30 µM (inactive) | > 30 µM (inactive) | > 30 µM (inactive)
CN(C)C(=O)c1cc2cnc(Nc3ccc(N4CCNCC4)cn3)nc2n1C1CCCC1 [RIBOCICLIB] | > 30 µM (inactive) | > 30 µM (inactive) | > 30 µM (inactive) | > 30 µM (inactive) | > 30 µM (inactive) | > 30 µM (inactive)
COc1cc(OC)c(/C=C/S(=O)(=O)Cc2ccc(OC)c(NCC(=O)O)c2)c(OC)c1 [RIGOSERTIB] | > 30 µM (inactive) | > 30 µM (inactive) | > 30 µM (inactive) | > 30 µM (inactive) | > 30 µM (inactive) | > 30 µM (inactive)
